How the values were obtained:
RS4;11 cells = assay: Cell proliferation assay (MTS), RS4;11 cells, 72 h; format: cell-based; conditions: Homo sapiens, RS4-11, 72 h
Procedure, shortened: (§1)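 Proliferation was scored by MTS (2 h, then SDS stop, A490 with 650 nm reference) and IC50 derived. Compound ran at nine final concentrations from 1.5 to 10000 nM. DOHH2 were incubated 120 h and RS4;11 72 h, both plated at 5000 cells/well in RPMI-1640 plus 10% FBS.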

DOHH2 cells = assay: Cell proliferation assay (MTS), DOHH2 cells, 120 h; format: cell-based; conditions: Homo sapiens, DOHH-2, 120 h
Procedure, shortened: as §1

SMILES	IC50 (RS4;11 cells) [nM]	IC50 (DOHH2 cells) [nM]
CN1CCN(C[C@H]2CSc3cc(S(=O)(=O)NC(=O)c4ccc(N5CCN(CC6=C(c7ccc(Cl)cc7)CC(C)(C)CC6)CC5)cc4Oc4cnc5[nH]ccc5c4)cc([N+](=O)[O-])c3N2)CC1 [Example 3-9, (S)-2-((1H-pyrrolo[2,3-b]pyridin-5-yl)oxy)-4-(4-((4′-chloro-5,5-dimethyl-3,4,5,6-tetra-hydro-[1,1′-biphenyl]-2-yl)methyl)piperazin-1-yl)-N-((3-((4-methylpiperazin-1-yl)methyl)-5-nitro-3,4-dihydro-2H-benzo[b][1,4]thiazin-7-yl)sulfonyl)benzamide]	13	24
CC1(C)CCC(CN2CCN(c3ccc(C(=O)NS(=O)(=O)c4cc5c(c([N+](=O)[O-])c4)N[C@@H](CN4CCOCC4)CS5)c(Oc4cnc5[nH]ccc5c4)c3)CC2)=C(c2ccc(Cl)cc2)C1 [Example 3-10, (S)-2-((1H-pyrrolo[2,3-b]pyridin-5-yl)oxy)-4-(4-((4′-chloro-5,5-dimethyl-3,4,5,6-tetra-hydro-[1,1′-biphenyl]-2-yl)methyl)piperazin-1-yl)-N-((3-(morpholinomethyl)-5-nitro-3,4-dihydro-2H-benzo[b][1,4]thiazin-7-yl)sulfonyl)benzamide]	11	32
CC1(C)CCC(CN2CCN(c3ccc(C(=O)NS(=O)(=O)c4cc5c(c([N+](=O)[O-])c4)N[C@H](CCO)CS5)c(Oc4cnc5[nH]ccc5c4)c3)CC2)=C(c2ccc(Cl)cc2)C1 [Example 3-11, (R)-2-((1H-pyrrolo[2,3-b]pyridin-5-yl)oxy)-4-(4-((4′-chloro-5,5-dimethyl-3,4,5,6-tetra-hydro-[1,1′-biphenyl]-2-yl)methyl)piperazin-1-yl)-N-((3-(2-hydroxyethyl)-5-nitro-3,4-dihydro-2H-benzo[b][1,4]thiazin-7-yl)sulfonyl) benzamide]	11	16
COCC[C@@H]1CSc2cc(S(=O)(=O)NC(=O)c3ccc(N4CCN(CC5=C(c6ccc(Cl)cc6)CC(C)(C)CC5)CC4)cc3Oc3cnc4[nH]ccc4c3)cc([N+](=O)[O-])c2N1 [Example 3-12, (R)-2-((1H-pyrrolo[2,3-b]pyridin-5-yl)oxy)-4-(4-((4′-chloro-5,5-dimethyl-3,4,5,6-tetra-hydro-[1,1′-biphenyl]-2-yl)methyl)piperazin-1-yl)-N-((3-(2-methoxyethyl)-5-nitro-3,4-dihydro-2H-benzo[b][1,4]thiazin-7-yl)sulfonyl)benzamide]	84	120
CN(C)CC[C@@H]1CSc2cc(S(=O)(=O)NC(=O)c3ccc(N4CCN(CC5=C(c6ccc(Cl)cc6)CC(C)(C)CC5)CC4)cc3Oc3cnc4[nH]ccc4c3)cc([N+](=O)[O-])c2N1 [Example 3-13, (R)-2-((1H-pyrrolo[2,3-b]pyridin-5-yl)oxy)-4-(4-((4′-chloro-5,5-dimethyl-3,4,5,6-tetra-hydro-[1,1′-biphenyl]-2-yl)methyl)piperazin-1-yl)-N-((3-(2-(dimethylamino)ethyl)-5-nitro-3,4-dihydro-2H-benzo[b][1,4]thiazin-7-yl)sulfonyl)benzamide]	2	2
CN1CCN(CC[C@@H]2CSc3cc(S(=O)(=O)NC(=O)c4ccc(N5CCN(CC6=C(c7ccc(Cl)cc7)CC(C)(C)CC6)CC5)cc4Oc4cnc5[nH]ccc5c4)cc([N+](=O)[O-])c3N2)CC1 [Example 3-14, (R)-2-((1H-pyrrolo[2,3-b]pyridin-5-yl)oxy)-4-(4-((4′-chloro-5,5-dimethyl-3,4,5,6-tetra-hydro-[1,1′-biphenyl]-2-yl)methyl)piperazin-1-yl)-N-((3-(2-(4-methylpiperazin-1-yl)ethyl)-5-nitro-3,4-dihydro-2H-benzo[b][1,4]thiazin-7-yl)sulfonyl)benzamide]	4	9
CC1(C)CCC(CN2CCN(c3ccc(C(=O)NS(=O)(=O)c4cc5c(c([N+](=O)[O-])c4)N[C@@H](CCO)CS5)c(Oc4cnc5[nH]ccc5c4)c3)CC2)=C(c2ccc(Cl)cc2)C1 [Example 3-15, (S)-2-((1H-pyrrolo[2,3-b]pyridin-5-yl)oxy)-4-(4-((4′-chloro-5,5-dimethyl-3,4,5,6-tetra-hydro-[1,1′-biphenyl]-2-yl)methyl)piperazin-1-yl)-N-((3-(2-hydroxyethyl)-5-nitro-3,4-dihydro-2H-benzo[b][1,4]thiazin-7-yl)sulfonyl) benzamide]	13	48
COCC[C@H]1CSc2cc(S(=O)(=O)NC(=O)c3ccc(N4CCN(CC5=C(c6ccc(Cl)cc6)CC(C)(C)CC5)CC4)cc3Oc3cnc4[nH]ccc4c3)cc([N+](=O)[O-])c2N1 [Example 3-16, (S)-2-((1H-pyrrolo[2,3-b]pyridin-5-yl)oxy)-4-(4-((4′-chloro-5,5-dimethyl-3,4,5,6-tetra-hydro-[1,1′-biphenyl]-2-yl)methyl)piperazin-1-yl)-N-((3-(2-methoxyethyl)-5-nitro-3,4-dihydro-2H-benzo[b][1,4]thiazin-7-yl)sulfonyl)benzamide]	33	132
CS(=O)OCC[C@H]1CSc2cc(S(=O)(=O)NC(=O)c3ccc(N4CCN(CC5=C(c6ccc(Cl)cc6)CC(C)(C)CC5)CC4)cc3Oc3cnc4[nH]ccc4c3)cc([N+](=O)[O-])c2N1 (stereo partly drawn) [Example 3-17, 2-((S)-7-(N-(2-((1H-pyrrolo[2,3-b]pyridin-5-yl)oxy)-4-(4-((4′-chloro-5,5-dimethyl-3,4,5,6-tetrahydro-[1,1′-biphenyl]-2-yl)methyl)piperazin-1-yl)benzoyl)sulfamoyl)-5-nitro-3,4-dihydro-2H-benzo[b][1,4]thiazin-3-yl) ethyl methanesulfinate]	19	49
CC1(C)CCC(CN2CCN(c3ccc(C(=O)NS(=O)(=O)c4cc5c(c([N+](=O)[O-])c4)N[C@@H](CCS(C)(=O)=O)CS5)c(Oc4cnc5[nH]ccc5c4)c3)CC2)=C(c2ccc(Cl)cc2)C1 [Example 3-18, (S)-2-((1H-pyrrolo[2,3-b]pyridin-5-yl)oxy)-4-(4-((4′-chloro-5,5-dimethyl-3,4,5,6-tetra-hydro-[1,1′-biphenyl]-2-yl)methyl)piperazin-1-yl)-N-((3-(2-(methylsulfonyl)ethyl)-5-nitro-3,4-dihydro-2H-benzo[b][1,4]thiazin-7-yl)sulfonyl)benzamide]	20	54
CN1CCN(CC[C@H]2CSc3cc(S(=O)(=O)NC(=O)c4ccc(N5CCN(CC6=C(c7ccc(Cl)cc7)CC(C)(C)CC6)CC5)cc4Oc4cnc5[nH]ccc5c4)cc([N+](=O)[O-])c3N2)CC1 [Example 3-19, (S)-2-((1H-pyrrolo[2,3-b]pyridin-5-yl)oxy)-4-(4-((4′-chloro-5,5-dimethyl-3,4,5,6-tetra-hydro-[1,1′-biphenyl]-2-yl)methyl)piperazin-1-yl)-N-((3-(2-(4-methylpiperazin-1-yl)ethyl)-5-nitro-3,4-dihydro-2H-benzo[b][1,4]thiazin-7-yl)sulfonyl)benzamide]	1	6
CC1(C)CCC(CN2CCN(c3ccc(C(=O)NS(=O)(=O)c4cc5c(c([N+](=O)[O-])c4)N[C@@H](CCN4CCOCC4)CS5)c(Oc4cnc5[nH]ccc5c4)c3)CC2)=C(c2ccc(Cl)cc2)C1 [Example 3-20, (S)-2-((1H-pyrrolo[2,3-b]pyridin-5-yl)oxy)-4-(4-((4′-chloro-5,5-dimethyl-3,4,5,6-tetra-hydro-[1,1′-biphenyl]-2-yl)methyl)piperazin-1-yl)-N-((3-(2-morpholinoethyl)-5-nitro-3,4-dihydro-2H-benzo[b][1,4]thiazin-7-yl)sulfonyl)benzamide]	2	9

Second part, led by results:

IC50 (RS4;11 cells) [nM]	SMILES	IC50 (DOHH2 cells) [nM]
1	CN1CCN(C[C@@H]2CNc3cc(S(=O)(=O)NC(=O)c4ccc(N5CCN(CC6=C(c7ccc(Cl)cc7)CC(C)(C)CC6)CC5)cc4Oc4cnc5[nH]ccc5c4)cc([N+](=O)[O-])c3N2)CC1 [Example 4-1, (S)-2-((1H-pyrrolo[2,3-b]pyridin-5-yl)oxy)-4-(4-((4′-chloro-5,5-dimethyl-3,4,5,6-tetrahydro-[1,1′-biphenyl]-2-yl)methyl)piperazin-1-yl)-N-((2-((4-methylpiperazin-1-yl)methyl)-8-nitro-1,2,3,4-tetrahydroquinoxalin-6-yl)sulfonyl)benzamide]	13
9	CC1(C)CCC(CN2CCN(c3ccc(C(=O)NS(=O)(=O)c4cc5c(c([N+](=O)[O-])c4)N[C@H](CN4CCOCC4)CN5)c(Oc4cnc5[nH]ccc5c4)c3)CC2)=C(c2ccc(Cl)cc2)C1 [Example 4-2, (S)-2-((1H-pyrrolo[2,3-b]pyridin-5-yl)oxy)-4-(4-((4′-chloro-5,5-dimethyl-3,4,5,6-tetra-hydro-[1,1′-biphenyl]-2-yl)methyl)piperazin-1-yl)-N-((2-(morpholinomethyl)-8-nitro-1,2,3,4-tetrahydroquinoxalin-6-yl)sulfonyl) benzamide]	29
46	CN1CCN(C[C@H]2CNc3cc(S(=O)(=O)NC(=O)c4ccc(N5CCN(CC6=C(c7ccc(Cl)cc7)CC(C)(C)CC6)CC5)cc4Oc4cnc5[nH]ccc5c4)cc([N+](=O)[O-])c3N2)CC1 [Example 4-3, (R)-2-((1H-pyrrolo[2,3-b]pyridin-5-yl)oxy)-4-(4-((4′-chloro-5,5-dimethyl-3,4,5,6-tetra-hydro-[1,1′-biphenyl]-2-yl)methyl)piperazin-1-yl)-N-((2-((4-methylpiperazin-1-yl)methyl)-8-nitro-1,2,3,4-tetrahydroquinoxalin-6-yl)sulfonyl)benzamide]	38
14	CC1(C)CCC(CN2CCN(c3ccc(C(=O)NS(=O)(=O)c4cc5c(c([N+](=O)[O-])c4)N[C@@H](CN4CCOCC4)CN5)c(Oc4cnc5[nH]ccc5c4)c3)CC2)=C(c2ccc(Cl)cc2)C1 [Example 4-4, (R)-2-((1H-pyrrolo[2,3-b]pyridin-5-yl)oxy)-4-(4-((4′-chloro-5,5-dimethyl-3,4,5,6-tetra-hydro-[1,1′-biphenyl]-2-yl)methyl)piperazin-1-yl)-N-((2-(morpholinomethyl)-8-nitro-1,2,3,4-tetrahydroquinoxalin-6-yl)sulfonyl) benzamide]	28
